Source: US8492408B2, “Benzimidazole derivatives and their use for modulating the GABAA receptor complex” (Aniona APS, priority 2008, dated 2013)

The compounds below were run against benzodiazepine modulatory unit of the GABAA receptor complex (3H-flunitrazepam binding, cerebral cortex membranes) (assay: In vitro inhibition of 3H-flunitrazepam (3H-FNM) binding). Conditions: inhibition of specific 3H-FNM (1 nM) binding, cerebral cortex membranes from male Wistar rats, 40 min at 2° C.
Design: species or system rat
Description: In Vitro Inhibition of ^3H-Flunitrazepam (^3H-FNM) Binding
The GABA recognition site and the benzodiazepine modulatory unit can selectively be labelled with ^3H-flunitrazepam.
Preparations are performed at 0-4° C. unless otherwise indicated. Cerebral cortex from male Wistar rats (150-200 g) is homogenised for 5-10 sec in 20 ml Tris-HCl (30 mM, pH 7.4) using an Ultra-Turrax homogeniser. The suspension is centrifuged at 27,000×g for 15 min and the pellet is washed three times with buffer (centrifuged at 27,000×g for 10 min). The washed pellet is homogenized in 20 ml of buffer and incubated on a water bath (37° C.) for 30 min to remove endogenous GABA and then centrifuged for 10 min at 27,000×g. The pellet is then homogenized in buffer and centrifuged for 10 min at 27,000×g. The final pellet is resuspended in 30 ml buffer and the preparation is frozen and stored at −20° C.
The membrane preparation is thawed and centrifuged at 2° C. for 10 min at 27,000×g. The pellet is washed twice with 20 ml 50 mM Tris-citrate, pH 7.1 using an Ultra-Turrax homogeniser and centrifuged for 10 min at 27,000×g. The final pellet is resuspended in 50 mM Tris-citrate, pH 7.1 (500 ml buffer per g of original tissue), and then used for binding assays. Aliquots of 0.5 ml tissue are added to 25 μl of test solution and 25 μl of ^3H-FNM (1 nM, final concentration), mixed and incubated for 40 min at 2° C. Non-specific binding is determined using Clonazepam (1 μM, final concentration). After incubation the samples are added 5 ml of ice-cold buffer and poured directly onto Whatman GF/C glass fibre filters under suction and immediately washed with 5 ml ice-cold buffer. The amount of radioactivity on the filters is determined by conventional liquid scintillation counting. Specific binding is total binding minus non-specific binding.
The test value will be given as IC50 (the concentration (μM) of the test substance which inhibits the specific binding of ^3H-FNM by 50%).
Co is specific binding in control assays, and
Cx is the specific binding in the test assay.
(The calculations assume normal mass-action kinetics).
Compound CC(C)(O)c1ccc2c(c1)ncn2-c1ccnc(-c2ccncc2C#N)c1 [Compound 7d, 4-[5-(1-Hydroxy-1-methyl-ethyl)-benzoimidazol-1-yl]-[2,4′]bipyridinyl-3′-carbonitrile] has an IC50 of 26 nM. CC(C)(O)c1ccc2c(c1)ncn2-c1ccnc(-c2ccncc2F)c1 [Compound 7c, 2-[1-(3′-Fluoro-[2,4′]bipyridinyl-4-yl)-1H-benzoimidazol-5-yl]-propan-2-ol] was tested, and the IC50 was 7.5 nM. Compound CC(C)(O)c1ccc2c(c1)ncn2-c1ccnc(-c2cccnc2Cl)c1 [Compound 7b, 2-[1-(2′-Chloro-[2,3′]bipyridinyl-4-yl)-1H-benzoimidazol-5-yl]-propan-2-ol] has an IC50 of 38 nM. For COc1ncccc1-c1cc(-n2cnc3cc(C(C)(C)O)ccc32)ccn1 [Compound 7a, 2-[1-(2′-Methoxy-[2,3′]bipyridinyl-4-yl)-1H-benzoimidazol-5-yl]-propan-2-ol], the IC50 was 1.2 nM.
